The test deals with Mtb pheS–FDAS. It counts as cell-based, Mycobacterium tuberculosis.

One compound from PMC7948948 (The Journal of Biological Chemistry, 2021) can be followed below.

Structures are written as SMILES. Converted amounts (≈) assume the structure as drawn.

For `O=C(Nc1cccnc1)N1CCC(Cc2cccc(Oc3ccc(C(F)(F)F)cn3)c2)CC1` [PF-3845], the “MIC, pheS–FDAS mutant” value stood at 40 µM (≈ 18.3 µg/mL).
